{"source": "ChEMBL document CHEMBL1201862", "about": "“PubChem BioAssay data set” (2004)", "key": {"[1]": {"molecular_target": "Tyrosine-protein kinase ITK/TSK (Homo sapiens, UniProt Q08881)", "sequence (Q08881 whole entry)": "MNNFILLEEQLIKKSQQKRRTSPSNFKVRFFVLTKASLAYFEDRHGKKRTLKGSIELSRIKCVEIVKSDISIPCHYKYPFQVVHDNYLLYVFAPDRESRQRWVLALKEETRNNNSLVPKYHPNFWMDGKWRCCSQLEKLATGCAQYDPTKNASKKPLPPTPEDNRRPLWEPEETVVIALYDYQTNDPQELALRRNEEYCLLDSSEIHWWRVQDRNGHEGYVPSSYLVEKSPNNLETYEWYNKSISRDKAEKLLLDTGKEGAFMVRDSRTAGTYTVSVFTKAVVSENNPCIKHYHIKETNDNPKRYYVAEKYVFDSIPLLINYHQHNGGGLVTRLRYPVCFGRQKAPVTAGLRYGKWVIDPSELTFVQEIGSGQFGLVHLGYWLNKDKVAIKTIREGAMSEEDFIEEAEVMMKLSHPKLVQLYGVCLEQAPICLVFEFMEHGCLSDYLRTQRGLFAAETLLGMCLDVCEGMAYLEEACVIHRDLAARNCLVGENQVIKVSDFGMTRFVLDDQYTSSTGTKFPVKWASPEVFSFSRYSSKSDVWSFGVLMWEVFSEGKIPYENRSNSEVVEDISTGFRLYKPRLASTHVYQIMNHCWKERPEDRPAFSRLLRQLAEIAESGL", "type": "functional"}, "[2]": {"molecular_target": "Mitogen-activated protein kinase 12 (Homo sapiens, UniProt P53778)", "sequence (P53778 whole entry)": "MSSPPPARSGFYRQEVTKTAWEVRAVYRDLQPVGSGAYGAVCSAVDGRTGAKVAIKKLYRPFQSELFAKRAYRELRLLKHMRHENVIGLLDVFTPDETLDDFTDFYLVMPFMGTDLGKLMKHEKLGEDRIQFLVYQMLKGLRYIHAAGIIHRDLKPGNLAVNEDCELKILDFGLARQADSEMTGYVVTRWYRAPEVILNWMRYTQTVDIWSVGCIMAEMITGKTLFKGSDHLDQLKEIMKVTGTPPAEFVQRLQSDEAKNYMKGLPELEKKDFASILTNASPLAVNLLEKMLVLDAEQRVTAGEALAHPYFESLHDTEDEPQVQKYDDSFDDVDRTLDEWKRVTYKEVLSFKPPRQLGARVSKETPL", "type": "functional"}, "ORF 73": {"molecular_target": "T1, ORF 73 (Human herpesvirus 8, UniProt O40947)", "T1 sequence (O40947 whole entry)": "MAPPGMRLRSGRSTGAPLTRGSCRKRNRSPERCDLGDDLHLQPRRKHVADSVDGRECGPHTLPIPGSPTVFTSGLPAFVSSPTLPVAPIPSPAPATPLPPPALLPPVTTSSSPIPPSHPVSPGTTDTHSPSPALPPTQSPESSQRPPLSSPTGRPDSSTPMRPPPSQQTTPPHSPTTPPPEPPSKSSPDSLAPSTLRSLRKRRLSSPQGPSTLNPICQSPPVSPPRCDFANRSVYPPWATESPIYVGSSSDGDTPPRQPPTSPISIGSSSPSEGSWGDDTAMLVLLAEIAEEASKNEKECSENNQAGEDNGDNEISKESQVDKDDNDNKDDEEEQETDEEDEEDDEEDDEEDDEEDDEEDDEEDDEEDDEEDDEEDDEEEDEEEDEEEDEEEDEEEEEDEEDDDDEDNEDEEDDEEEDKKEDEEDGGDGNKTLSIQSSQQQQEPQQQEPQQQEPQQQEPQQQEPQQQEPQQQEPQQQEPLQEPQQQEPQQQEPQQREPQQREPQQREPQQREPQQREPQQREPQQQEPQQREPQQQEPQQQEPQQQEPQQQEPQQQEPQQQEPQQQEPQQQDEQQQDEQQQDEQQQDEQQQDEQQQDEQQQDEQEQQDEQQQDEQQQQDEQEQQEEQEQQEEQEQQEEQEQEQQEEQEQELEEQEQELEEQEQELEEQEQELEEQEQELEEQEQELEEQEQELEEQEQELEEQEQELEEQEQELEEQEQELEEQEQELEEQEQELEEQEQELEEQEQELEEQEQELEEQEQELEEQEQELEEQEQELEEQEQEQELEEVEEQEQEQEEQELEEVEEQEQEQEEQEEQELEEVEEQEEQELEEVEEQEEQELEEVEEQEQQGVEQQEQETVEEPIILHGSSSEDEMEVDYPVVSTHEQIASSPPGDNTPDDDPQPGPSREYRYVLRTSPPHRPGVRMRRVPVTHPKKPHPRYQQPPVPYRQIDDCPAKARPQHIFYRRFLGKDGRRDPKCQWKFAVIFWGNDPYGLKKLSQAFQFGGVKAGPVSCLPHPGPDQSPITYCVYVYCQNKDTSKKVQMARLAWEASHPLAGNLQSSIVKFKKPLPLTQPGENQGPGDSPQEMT", "assay": "KSHV LANA DNA-binding disruption – biochemical, fluorescence polarization, cherry-picked samples, dose response (AID 504725);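 also: fluorescence polarization of a labeled DNA duplex reporting LANA DNA binding; potency is for inhibitors that block LANA binding to the DNA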", "set-up": "species or system Human gammaherpesvirus 8"}, "[3]": {"molecular_target": "T2, RNA-binding protein pos-1 (Caenorhabditis elegans, UniProt G5EF15)", "T2 sequence (G5EF15 whole entry)": "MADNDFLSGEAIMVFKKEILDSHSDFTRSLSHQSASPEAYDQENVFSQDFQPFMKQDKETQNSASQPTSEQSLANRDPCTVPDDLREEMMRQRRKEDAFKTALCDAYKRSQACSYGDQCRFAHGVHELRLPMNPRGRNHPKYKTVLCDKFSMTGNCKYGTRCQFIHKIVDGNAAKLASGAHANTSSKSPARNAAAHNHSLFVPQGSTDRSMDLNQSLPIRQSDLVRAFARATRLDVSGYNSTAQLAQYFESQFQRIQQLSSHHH", "assay": "disruptors of C. elegans POS-1 RNA interaction – biochemical, fluorescence polarization, dose response (AID 1964);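 also: purified POS-1 fused to maltose binding protein made in E. coli; potency of compounds blocking POS-1 binding to fluorescent RNA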"}, "[4]": {"assay": "NIH-3T3 fibroblast cytotoxicity, dose response, cytotoxicity control, cell-based, fluorescence, Alamar Blue, secondary assay (AID 2327);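 also: NIH-3T3 mouse fibroblasts cultured with fluconazole at 8 µg/mL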", "type": "functional"}, "Protein RecA": {"molecular_target": "T3, Protein RecA (Mycobacterium tuberculosis, UniProt P9WHJ3)", "T3 sequence (P9WHJ3 whole entry)": "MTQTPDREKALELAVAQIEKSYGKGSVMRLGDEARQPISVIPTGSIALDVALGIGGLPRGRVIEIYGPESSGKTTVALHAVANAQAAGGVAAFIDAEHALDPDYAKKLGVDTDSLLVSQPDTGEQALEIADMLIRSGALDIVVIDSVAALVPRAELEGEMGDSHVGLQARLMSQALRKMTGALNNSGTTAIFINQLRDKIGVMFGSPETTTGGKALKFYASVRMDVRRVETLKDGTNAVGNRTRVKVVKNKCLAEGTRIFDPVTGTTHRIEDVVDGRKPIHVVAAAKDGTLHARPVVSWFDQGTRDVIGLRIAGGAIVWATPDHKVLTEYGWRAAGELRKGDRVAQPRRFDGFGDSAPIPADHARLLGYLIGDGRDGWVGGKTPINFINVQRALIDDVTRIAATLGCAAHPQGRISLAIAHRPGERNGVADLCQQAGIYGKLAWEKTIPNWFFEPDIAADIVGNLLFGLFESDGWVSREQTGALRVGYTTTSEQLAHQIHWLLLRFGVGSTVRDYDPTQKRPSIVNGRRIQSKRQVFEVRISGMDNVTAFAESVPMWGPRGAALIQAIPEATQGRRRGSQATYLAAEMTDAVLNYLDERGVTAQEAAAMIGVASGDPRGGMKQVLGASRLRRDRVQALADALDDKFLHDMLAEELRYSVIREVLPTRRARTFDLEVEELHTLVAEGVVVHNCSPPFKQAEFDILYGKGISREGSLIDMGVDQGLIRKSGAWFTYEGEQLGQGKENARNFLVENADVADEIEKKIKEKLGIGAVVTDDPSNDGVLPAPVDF", "assay": "Fluorescence Cell-Free Homogeneous Dose Retest to Identify Inhibitors of RecA-Intein Splicing Activity. [Related pubchem assays (depositor defined):AID2097, AID2223, AID489010, AID492950]", "type": "functional"}, "[5]": {"molecular_target": "Dual specificity protein kinase CLK4 (Homo sapiens, UniProt Q9HAZ1)", "sequence (Q9HAZ1 whole entry)": "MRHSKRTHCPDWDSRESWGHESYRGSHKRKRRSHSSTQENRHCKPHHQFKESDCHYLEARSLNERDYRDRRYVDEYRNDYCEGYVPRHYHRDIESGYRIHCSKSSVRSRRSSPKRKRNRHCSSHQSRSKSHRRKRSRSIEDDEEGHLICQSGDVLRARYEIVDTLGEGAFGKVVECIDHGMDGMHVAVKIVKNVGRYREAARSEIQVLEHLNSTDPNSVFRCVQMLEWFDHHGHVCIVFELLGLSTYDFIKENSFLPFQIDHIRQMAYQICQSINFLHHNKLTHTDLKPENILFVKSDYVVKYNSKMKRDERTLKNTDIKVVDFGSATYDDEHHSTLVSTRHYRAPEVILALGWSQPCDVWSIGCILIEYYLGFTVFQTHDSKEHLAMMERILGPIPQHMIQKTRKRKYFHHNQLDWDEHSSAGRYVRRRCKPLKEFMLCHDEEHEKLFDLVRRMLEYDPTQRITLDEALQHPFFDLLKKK", "type": "functional"}, "[6]": {"molecular_target": "Calcium/calmodulin-dependent protein kinase type II subunit alpha (Homo sapiens, UniProt Q9UQM7)", "sequence (Q9UQM7 whole entry)": "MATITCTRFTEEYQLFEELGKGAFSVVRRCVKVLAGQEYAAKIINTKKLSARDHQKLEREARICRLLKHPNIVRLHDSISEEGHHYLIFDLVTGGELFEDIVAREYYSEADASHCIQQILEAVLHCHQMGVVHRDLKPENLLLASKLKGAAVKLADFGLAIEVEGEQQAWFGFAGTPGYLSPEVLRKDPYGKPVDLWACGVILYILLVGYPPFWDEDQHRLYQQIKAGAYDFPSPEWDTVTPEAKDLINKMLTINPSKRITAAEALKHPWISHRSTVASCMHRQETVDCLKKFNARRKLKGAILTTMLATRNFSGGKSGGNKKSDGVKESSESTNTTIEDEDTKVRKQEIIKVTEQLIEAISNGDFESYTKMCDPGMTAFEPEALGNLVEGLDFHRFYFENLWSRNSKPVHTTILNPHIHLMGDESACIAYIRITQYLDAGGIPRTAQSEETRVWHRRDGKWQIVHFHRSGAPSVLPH", "assay": "Navigating the Kinome. Panel member name: CAMK2A", "type": "functional"}, "[7]": {"molecular_target": "Dual specificity tyrosine-phosphorylation-regulated kinase 1B (Homo sapiens, UniProt Q9Y463)", "sequence (Q9Y463 whole entry)": "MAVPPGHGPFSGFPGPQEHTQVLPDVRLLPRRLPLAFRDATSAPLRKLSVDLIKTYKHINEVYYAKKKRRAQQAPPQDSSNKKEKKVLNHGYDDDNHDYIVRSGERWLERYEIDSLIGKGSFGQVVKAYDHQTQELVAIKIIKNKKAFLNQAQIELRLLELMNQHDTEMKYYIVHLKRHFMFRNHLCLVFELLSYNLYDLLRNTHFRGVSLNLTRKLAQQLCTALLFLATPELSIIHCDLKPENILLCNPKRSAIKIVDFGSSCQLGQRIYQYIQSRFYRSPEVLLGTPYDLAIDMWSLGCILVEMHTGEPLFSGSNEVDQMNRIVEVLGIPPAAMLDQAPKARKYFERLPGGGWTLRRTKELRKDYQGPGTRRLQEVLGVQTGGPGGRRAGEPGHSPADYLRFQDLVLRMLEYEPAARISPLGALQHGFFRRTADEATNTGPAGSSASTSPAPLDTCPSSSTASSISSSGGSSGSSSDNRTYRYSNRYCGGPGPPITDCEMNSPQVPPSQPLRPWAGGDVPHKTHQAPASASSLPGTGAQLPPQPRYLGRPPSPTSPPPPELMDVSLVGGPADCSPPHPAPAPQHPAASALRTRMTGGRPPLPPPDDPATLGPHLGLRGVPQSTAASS", "assay": "Navigating the Kinome. Panel member name: DYRK1B", "type": "functional"}, "[8]": {"molecular_target": "Inhibitor of nuclear factor kappa-B kinase subunit epsilon (Homo sapiens, UniProt Q14164)", "sequence (Q14164 whole entry)": "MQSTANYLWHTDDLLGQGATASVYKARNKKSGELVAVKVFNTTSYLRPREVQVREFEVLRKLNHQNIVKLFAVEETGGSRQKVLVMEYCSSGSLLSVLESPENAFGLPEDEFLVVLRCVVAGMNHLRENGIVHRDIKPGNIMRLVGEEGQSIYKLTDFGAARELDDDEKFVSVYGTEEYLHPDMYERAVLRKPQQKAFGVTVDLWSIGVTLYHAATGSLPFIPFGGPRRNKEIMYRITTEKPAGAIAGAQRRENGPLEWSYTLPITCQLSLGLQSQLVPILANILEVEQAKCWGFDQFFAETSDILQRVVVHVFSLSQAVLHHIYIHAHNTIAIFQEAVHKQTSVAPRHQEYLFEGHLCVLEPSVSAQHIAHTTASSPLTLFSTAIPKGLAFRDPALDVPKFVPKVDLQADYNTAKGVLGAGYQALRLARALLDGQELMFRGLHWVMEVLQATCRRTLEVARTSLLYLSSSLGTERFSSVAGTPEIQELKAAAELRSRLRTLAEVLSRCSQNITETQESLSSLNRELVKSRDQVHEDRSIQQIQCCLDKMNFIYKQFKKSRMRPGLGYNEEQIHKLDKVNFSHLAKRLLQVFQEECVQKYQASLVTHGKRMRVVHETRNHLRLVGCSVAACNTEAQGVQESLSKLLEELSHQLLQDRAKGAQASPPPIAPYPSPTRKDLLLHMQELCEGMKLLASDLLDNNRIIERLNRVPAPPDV", "assay": "Navigating the Kinome. Panel member name: IKBKE", "type": "functional"}, "[9]": {"molecular_target": "Cyclin-dependent kinase 8 (Homo sapiens, UniProt P49336)", "sequence (P49336 whole entry)": "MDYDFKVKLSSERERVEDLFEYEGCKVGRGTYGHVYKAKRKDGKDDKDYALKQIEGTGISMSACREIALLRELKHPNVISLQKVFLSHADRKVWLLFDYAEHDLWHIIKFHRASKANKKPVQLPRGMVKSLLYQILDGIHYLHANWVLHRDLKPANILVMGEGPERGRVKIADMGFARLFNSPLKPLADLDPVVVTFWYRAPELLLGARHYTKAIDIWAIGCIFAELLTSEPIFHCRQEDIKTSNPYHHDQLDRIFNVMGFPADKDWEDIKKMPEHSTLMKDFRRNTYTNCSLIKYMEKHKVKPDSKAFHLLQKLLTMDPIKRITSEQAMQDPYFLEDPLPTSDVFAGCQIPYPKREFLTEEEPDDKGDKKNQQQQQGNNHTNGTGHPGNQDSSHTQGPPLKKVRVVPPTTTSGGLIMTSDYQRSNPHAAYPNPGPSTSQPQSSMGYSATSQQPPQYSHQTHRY", "assay": "Navigating the Kinome. Panel member name: CDK8", "type": "functional"}}, "note": "Calls of active or inactive are those of the source.", "data": [{"compound": "CCOC(=O)c1cn(-c2ccc(O)cc2C)c2cc(-c3ccncc3)ccc2c1=O", "values": [{"measurement": "Ki", "setting": "[1]", "result": "> 1.58 µM (inactive)"}, {"measurement": "Ki", "setting": "[2]", "result": "> 6.31 µM (inactive)"}]}, {"compound": "O=C(O)c1[nH]c2ccccc2c1C(c1cc(Cl)cc([N+](=O)[O-])c1O)c1c(C(=O)O)[nH]c2ccccc12", "values": [{"measurement": "AC50", "setting": "ORF 73", "result": "88.1 µM (active)"}, {"measurement": "EC50", "setting": "[3]", "result": "14.9 µM (active)"}]}, {"compound": "O=C1C=C(NCc2ccccc2)c2ccccc2C1=O", "values": [{"measurement": "EC50", "setting": "[4]", "result": "2.61 µM (inconclusive)"}, {"measurement": "EC50", "setting": "Protein RecA", "result": "774 nM (active)"}]}, {"compound": "Cc1cc(=O)[nH]nc1-c1ccc(NC(=O)Nc2cc(C(F)(F)F)ccc2F)c(Cl)c1", "values": [{"measurement": "Ki", "setting": "[5]", "result": "> 2.51 µM (inactive)"}, {"measurement": "Ki", "setting": "[6]", "result": "> 3.98 µM (inactive)"}, {"measurement": "Ki", "setting": "[7]", "result": "> 2.51 µM (inactive)"}, {"measurement": "Ki", "setting": "[8]", "result": "> 3.16 µM (inactive)"}, {"measurement": "Ki", "setting": "[9]", "result": "158 nM (active)"}]}]}
